One block for each molecule: values may come before it.
Target: T1, KCNQ5 (Homo sapiens, UniProt Q9NR82)
T1 construct: A complete cDNA was assembled and cloned into the oocyte expression vector PTLN; expressed in transfected cells; host or cells: Xenopus oocytes injected with cRNA from pTLN
Assay: Two-electrode voltage clamp of KCNQ5 homomers expressed in Xenopus oocytes
Assay type: cell-based
Method: KCNQ5 was expressed in Xenopus oocytes and its activity was investigated by two-electrode voltage clamping.
After linearization of the KCNQ5-containing pTLN vector with Hpal, capped cRNA was transcribed in vitro using the mMessage mMachine cRNA synthesis kit (Ambion). Usually 5-15 ng of cRNA were injected into Xenopus oocytes previously isolated by manual defolliculation and short collagenase treatment. In co-expression experiments cRNAs were injected at a 1:1 ratio. Oocytes were kept at 17° C. in modified Barth's solution (90 mM NaCl, 1 mM KCl, 0.41 mM CaCl2, 0.33 mM Ca(NO3)2, 0.82 mM MgSO4, 10 mM HEPES, 100 U penicillin—100 μg streptomycin/ml, pH 7.6).
Standard two-electrode voltage-clamp measurements were performed at room temperature 2-4 days after injection using a Turbotec 05 amplifier (npi instruments, Tamm, Germany) and pClamp 5.5 software (Axon Instruments). Currents were usually recorded in ND98 solution (see Table 2). Linopirdine (RBI, Natick, Mass.) was prepared as a 100 mM stock solution in DMSO and added to a final concentration of 200 μM to ND98.
To determine the voltage dependence of apparent open probability, oocytes were clamped for 2 seconds to values between −80 mV to +40 mV, in 10 mV steps, followed by a constant −30 mV test pulse. Tail currents extrapolated to t=0 were obtained from a mono-exponential fit, normalised to the value at 0 mV and used for the analysis of apparent popen. Data analysis used PClamp6 and Microcal Origin 5.0.

T1 sequence (Q9NR82 36-932): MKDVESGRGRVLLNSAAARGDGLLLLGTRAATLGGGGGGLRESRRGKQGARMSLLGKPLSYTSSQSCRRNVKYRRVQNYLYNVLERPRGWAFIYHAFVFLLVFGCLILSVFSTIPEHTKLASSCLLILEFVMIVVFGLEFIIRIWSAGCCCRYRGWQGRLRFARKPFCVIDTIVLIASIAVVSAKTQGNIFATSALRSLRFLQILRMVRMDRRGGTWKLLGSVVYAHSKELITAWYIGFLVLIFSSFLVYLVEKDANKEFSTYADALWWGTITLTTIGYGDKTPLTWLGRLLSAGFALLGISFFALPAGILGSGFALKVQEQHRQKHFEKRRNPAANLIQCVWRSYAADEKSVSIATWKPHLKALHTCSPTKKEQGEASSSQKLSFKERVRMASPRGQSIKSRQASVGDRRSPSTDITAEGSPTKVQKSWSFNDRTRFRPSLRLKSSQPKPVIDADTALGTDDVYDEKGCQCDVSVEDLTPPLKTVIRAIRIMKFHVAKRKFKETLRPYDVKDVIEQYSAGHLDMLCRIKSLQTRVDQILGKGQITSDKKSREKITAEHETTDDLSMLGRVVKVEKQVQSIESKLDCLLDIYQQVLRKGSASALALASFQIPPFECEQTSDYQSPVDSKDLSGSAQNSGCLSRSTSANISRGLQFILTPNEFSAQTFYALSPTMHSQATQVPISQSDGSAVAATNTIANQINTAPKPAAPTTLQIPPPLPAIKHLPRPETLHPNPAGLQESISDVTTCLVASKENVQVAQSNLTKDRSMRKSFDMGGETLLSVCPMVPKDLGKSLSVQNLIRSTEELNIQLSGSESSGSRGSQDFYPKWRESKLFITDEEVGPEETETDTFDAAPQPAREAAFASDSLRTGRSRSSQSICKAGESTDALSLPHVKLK

shift of voltage dependence of apparent popen towards negative potentials (500 μM niflumic acid (FIG. 5B)): about 20 mV
Structure (SMILES): O=C(O)c1cccnc1Nc1cccc(C(F)(F)F)c1 [Niflumic acid, niflumic acid]

IC50 (extracellular application, Xenopus oocytes, from fit curves (FIG. 5A), read-out: IC50, inhibition of KCNQ5 homomers): 65 ± 4 µM
Structure (SMILES): O=C1c2ccccc2C(Cc2ccncc2)(Cc2ccncc2)c2ccccc21 [XE991, 10,10-bis-(4-pyridinyl-methyl)-9-(10H)-antracenone]

Structure (SMILES): [Ba+2] [Ba^++]
inhibition of KCNQ5 currents (5 mM): more than 80%

Source: patent US7288630B2, “Potassium channel KCNQ5 and sequences encoding the same” (NeuroSearch A/S, priority 1999, dated 2007)
